Measured values from ChEMBL document CHEMBL1201862, “PubChem BioAssay data set” (2004).
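Exposure lasted 48 hours, with cells grown in 96-well plates and compounds tested at five concentrations. At the GI50, growth is halved.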 Active and inactive are the calls of the source. No stated cut-off is given here; in the data, active = GI50 up to about 1.1 µM and inactive = higher. Non-standard residues stand in square brackets, D forms with d. Residues, ends and D or L forms follow the SMILES beside them. ξ: configuration not given here. *: point of attachment. X18 = COC1=CC(=O)N(C(=O)C(O*)C(C)C)C1Cc1ccccc1; ξNMe2Val = CC(C)C(C(=O)*)N(C)C; NMeV = CN[CH](C(=O)O)C(C)C

Legend:
Experiment in all cases: DTP human tumour cell line panel, 48 h
MCF7 = test system: MCF7
HOP-18 = test system: HOP-18
RXF 631 = test system: RXF 631
DMS-273 = test system: DMS-273
DLD-1 = test system: DLD-1
M19-MEL = test system: M19-MEL
KM-20L2 = test system: KM-20L2
XF498 = test system: XF498
DMS-114 = test system: DMS-114

Row | SMILES | GI50 (MCF7) | GI50 (HOP-18) | GI50 (RXF 631) | GI50 (DMS-273) | GI50 (DLD-1) | GI50 (M19-MEL) | GI50 (KM-20L2) | GI50 (XF498) | GI50 (DMS-114)
1 | COC1=CC(=O)N(C(=O)C(OC(=O)C2CCCN2C(=O)C2CCCN2C(=O)C(C(C)C)N(C)C(=O)C(NC(=O)C(C(C)C)N(C)C)C(C)C)C(C)C)C1Cc1ccccc1 (configuration not stated) (ξNMe2Val-V[NMeV]PP-X18; configuration not given here) | 0.24 nM (active) | < 0.01 µM (active) | 0.00459 µM (active) | 0.00103 µM (active) | 0.00108 µM (active) | 0.00319 µM (active) | 0.00135 µM (active) | 0.000308 µM (active) | 0.000476 µM (active)
2 | Cc1ccc(N(C(=O)CC(=O)NN)C(=O)c2ccccc2Cl)cc1 | – | > 100 µM (inactive) | > 100 µM (inactive) | > 100 µM (inactive) | > 100 µM (inactive) | > 100 µM (inactive) | > 100 µM (inactive) | > 100 µM (inactive) | > 100 µM (inactive)
3 | COC(=O)CC(NC(=O)OCc1ccccc1)C(C(C)=O)C(=O)OCc1ccccc1 (configuration not stated) | – | > 31.6 µM (inactive) | > 10 µM (inactive) | > 31.6 µM (inactive) | > 31.6 µM (inactive) | > 31.6 µM (inactive) | > 31.6 µM (inactive) | > 10 µM (inactive) | > 31.6 µM (inactive)
4 | CC1=Nc2c(ccc3c2C(=O)c2ccccc2C3=O)NC(c2ccncc2)C1 (configuration not stated) | – | > 10 µM (inactive) | 36.6 µM (inactive) | > 10 µM (inactive) | 29.4 µM (inactive) | > 10 µM (inactive) | > 10 µM (inactive) | > 100 µM (inactive) | 7.74 µM (inactive)
5 | COC(=O)C(Cc1nc2ccc(Cl)cc2nc1O)C(=O)C(=O)Nc1ccccc1[N+](=O)[O-] (configuration not stated) | – | 93.8 µM (inactive) | > 100 µM (inactive) | > 100 µM (inactive) | > 100 µM (inactive) | > 100 µM (inactive) | > 100 µM (inactive) | > 100 µM (inactive) | > 100 µM (inactive)
6 | CC1(C)COC(c2ccc(C(F)(F)F)cc2C(O)c2ccc3ccccc3c2)=N1 (configuration not stated) | – | > 10 µM (inactive) | > 100 µM (inactive) | > 10 µM (inactive) | > 10 µM (inactive) | > 10 µM (inactive) | > 10 µM (inactive) | 64.3 µM (inactive) | > 10 µM (inactive)
7 | OCC(O)COc1c(Cl)cc(Cl)cc1Cl (configuration not stated) | – | > 100 µM (inactive) | > 100 µM (inactive) | > 100 µM (inactive) | > 59.7 µM (inactive) | > 100 µM (inactive) | > 100 µM (inactive) | > 100 µM (inactive) | > 100 µM (inactive)
